Reference: patent US20020137929A1, “1 - (3-heterocyclylphenyl) isothiourea, -isourea, -guanidine and -amidine herbicidal agents” (Intellectual Property Department, BASF Aktiengesellschaft, priority 1998, published 2002)

How the values were obtained:
ZEAMX (Corn, Field) [1] = test: Preemergence herbicidal evaluation; type: in vivo, Zea mays; conditions: rated 4-5 weeks after treatment
Summary of the method: (§1)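 Steps: mix seeds into potting soil; plant atop ~1 inch soil; spray compound in aqueous acetone (~0.0156-0.500 kg/ha equivalent); maintain in greenhouse with watering; rate visually 0-9 versus control at 4-5 weeks.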

ORYSAT (Rice, Tebonnet) = test: Postemergence herbicidal evaluation; type: in vivo, Oryza sativa, (L.) Tebonnet; conditions: postemergence
Summary of the method: (§2)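 Visual 0–9 rating versus control (stand, vigor, malformation, size, chlorosis, overall appearance), taken four to five weeks post-spray. Two-week-old seedlings received roughly 0.0156–0.500 kg/ha active in acetone/water (50/50) with 0.5% TWEEN 20 via nozzle at 40 psi.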

SETVI (Foxtail, Green) [2] = test: Preemergence herbicidal evaluation; type: in vivo, Setaria viridis; conditions: rated 4-5 weeks after treatment
Summary of the method: as §1

CYPIR (Rice Flatsedge) = test: Preemergence weed control under flooded paddy conditions; type: in vivo, Cyperus iria; conditions: rated 3-4 weeks after treatment
Summary of the method: (§3)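 Herbicidal effect is scored visually on a 0-9 scale against an untreated control, three to four weeks after compounds are pipetted into the flood water (1.5 to 3 cm deep) over seeds planted in silt loam at 0.5 cm depth. Rates: about 0.0313 to 0.500 kg/ha.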

[3] = system: ECHORC (Watergrass (Calif.)); test: as above; type: in vivo, Echinochloa oryzoides; conditions: rated 3-4 weeks after treatment
Summary of the method: as §3

ECHCG (Barnyardgrass) = test: Preemergence herbicidal evaluation; type: in vivo, Echinochloa crus-galli; conditions: rated 4-5 weeks after treatment
Summary of the method: as §1

CYPSE (Flatsedge) = test: Preemergence weed control under flooded paddy conditions; type: in vivo, Cyperus serotinus; conditions: rated 3-4 weeks after treatment
Summary of the method: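 Visual injury scored 0-9 against control three to four weeks post-treatment, greenhouse-grown. Application: acetone/water (50/50) solutions dosed directly into flood water (1.5-3 cm over silt loam, planted top 0.5 cm), roughly 0.0313 to 0.500 kg/ha active ingredient.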

ZEAMX (Corn, Field) [4] = test: Postemergence herbicidal evaluation; type: in vivo, Zea mays; conditions: postemergence
Summary of the method: as §2

SETVI (Foxtail, Green) [5] = test: Postemergence herbicidal evaluation; type: in vivo, Setaria viridis; conditions: postemergence
Summary of the method: as §2

[6] = system: TRZAWR (Wheat, Winter, cv Riband); test: Preemergence herbicidal evaluation; type: in vivo, Triticum aestivum; conditions: rated 4-5 weeks after treatment
Summary of the method: as §1

[7] = rate 0.0313 kg/ha, rating scale 0-9
[8] = rate 0.0625 kg/ha, rating scale 0-9
[9] = rate 0.1250 kg/ha, rating scale 0-9
[10] = rate 0.2500 kg/ha, rating scale 0-9

CCOC(=O)CN1C(=O)C(COC)SC1=Nc1cc(-n2c(=O)cc(C(F)(F)F)n(C)c2=O)c(F)cc1Cl (stereo not shown) [Compound 156, Ethyl 2-{{2-chloro-5-[3,6-dihydro-3-methyl-2,6-dioxo-4-(trifluoromethyl)-1(2H)-pyrimidinyl]-4-fluorophenyl}imino}-5-(methoxymethyl)-4-oxo-3-thiazolidine-acetate]
Preemergence herbicidal rating ZEAMX (ZEAMX (Corn, Field) [1]; [7]): 0.0 | Preemergence herbicidal rating ZEAMX (ZEAMX (Corn, Field) [1]; [8]): 1.0 | Preemergence herbicidal rating ZEAMX (ZEAMX (Corn, Field) [1]; [9]): 2.0 | Preemergence herbicidal rating ZEAMX (ZEAMX (Corn, Field) [1]; [10]): 5.0 | Herbicidal rating ORYSAT (ORYSAT (Rice, Tebonnet); rate 0.0156 kg/ha): 0.5 | Herbicidal rating ORYSAT (ORYSAT (Rice, Tebonnet); rate 0.0313 kg/ha): 0.5 | Herbicidal rating ORYSAT (ORYSAT (Rice, Tebonnet); rate 0.0625 kg/ha): 2.0 | Preemergence herbicidal rating SETVI (SETVI (Foxtail, Green) [2]; [7]): 0.0 | Preemergence herbicidal rating SETVI (SETVI (Foxtail, Green) [2]; [8]): 2.0 | Preemergence herbicidal rating SETVI (SETVI (Foxtail, Green) [2]; [9]): 2.0 | Preemergence herbicidal rating SETVI (SETVI (Foxtail, Green) [2]; [10]): 9.0 | herbicidal effect rating, CYPIR (CYPIR (Rice Flatsedge); 0.2500 kg/ha): 0.0 | herbicidal effect rating, ECHORC ([3]; 0.2500 kg/ha): 0.0 | Preemergence herbicidal rating ECHCG (ECHCG (Barnyardgrass); [7]): 0.0 | Preemergence herbicidal rating ECHCG (ECHCG (Barnyardgrass); [8]): 0.0 | Preemergence herbicidal rating ECHCG (ECHCG (Barnyardgrass); [9]): 0.0 | Preemergence herbicidal rating ECHCG (ECHCG (Barnyardgrass); [10]): 0.0 | herbicidal effect rating, CYPSE (CYPSE (Flatsedge); 0.2500 kg/ha): 0.0 | Herbicidal rating ZEAMX (ZEAMX (Corn, Field) [4]; rate 0.0156 kg/ha): 4.5 | Herbicidal rating ZEAMX (ZEAMX (Corn, Field) [4]; rate 0.0313 kg/ha): 4.5 | Herbicidal rating ZEAMX (ZEAMX (Corn, Field) [4]; rate 0.0625 kg/ha): 4.5 | Herbicidal rating SETVI (SETVI (Foxtail, Green) [5]; rate 0.0156 kg/ha): 0.0 | Herbicidal rating SETVI (SETVI (Foxtail, Green) [5]; rate 0.0313 kg/ha): 0.0 | Herbicidal rating SETVI (SETVI (Foxtail, Green) [5]; rate 0.0625 kg/ha): 5.0 | Preemergence herbicidal rating TRZAWR [6, 7]: 0.0 | Preemergence herbicidal rating TRZAWR [6, 8]: 0.0 | Preemergence herbicidal rating TRZAWR [6, 9]: 0.0 | Preemergence herbicidal rating TRZAWR [6, 10]: 3.0

CCN1C(=O)CSC1=Nc1cc(-n2c(=O)cc(C(F)(F)F)n(C)c2=O)c(F)cc1Cl [Compound 159, 3-{4-Chloro-5-[(3-ethyl-4-oxo-2-thiazolidinyl-idene)amino]-2-fluorophenyl}-1-methyl-6-(trifluoromethyl)-2,4(1H,3H)-pyrimidinedione]
Preemergence herbicidal rating ZEAMX (ZEAMX (Corn, Field) [1]; 0.0156 kg/ha): 0.0 | Preemergence herbicidal rating ZEAMX (ZEAMX (Corn, Field) [1]; 0.0313 kg/ha): 0.0 | Preemergence herbicidal rating ZEAMX (ZEAMX (Corn, Field) [1]; 0.0625 kg/ha): 1.0 | Preemergence herbicidal rating ZEAMX (ZEAMX (Corn, Field) [1]; 0.1250 kg/ha): 2.0 | Preemergence herbicidal rating ZEAMX (ZEAMX (Corn, Field) [1]; 0.2500 kg/ha): 7.0 | Herbicidal rating ORYSAT (ORYSAT (Rice, Tebonnet); rate 0.0156 kg/ha): 1.5 | Herbicidal rating ORYSAT (ORYSAT (Rice, Tebonnet); rate 0.0313 kg/ha): 2.0 | Herbicidal rating ORYSAT (ORYSAT (Rice, Tebonnet); rate 0.0625 kg/ha): 2.0 | Preemergence herbicidal rating SETVI (SETVI (Foxtail, Green) [2]; 0.0156 kg/ha): 1.0 | Preemergence herbicidal rating SETVI (SETVI (Foxtail, Green) [2]; 0.0313 kg/ha): 8.0 | Preemergence herbicidal rating SETVI (SETVI (Foxtail, Green) [2]; 0.0625 kg/ha): 7.0 | Preemergence herbicidal rating SETVI (SETVI (Foxtail, Green) [2]; 0.1250 kg/ha): 9.0 | Preemergence herbicidal rating SETVI (SETVI (Foxtail, Green) [2]; 0.2500 kg/ha): 7.0 | herbicidal effect rating, CYPIR (CYPIR (Rice Flatsedge); 0.0313 kg/ha): 0.0 | herbicidal effect rating, CYPIR (CYPIR (Rice Flatsedge); 0.0625 kg/ha): 0.0 | herbicidal effect rating, CYPIR (CYPIR (Rice Flatsedge); 0.1250 kg/ha): 3.0 | herbicidal effect rating, CYPIR (CYPIR (Rice Flatsedge); 0.2500 kg/ha): 4.0 | herbicidal effect rating, ECHORC ([3]; 0.0313 kg/ha): 2.0 | herbicidal effect rating, ECHORC ([3]; 0.0625 kg/ha): 4.0 | herbicidal effect rating, ECHORC ([3]; 0.1250 kg/ha): 5.0 | herbicidal effect rating, ECHORC ([3]; 0.2500 kg/ha): 7.0 | Preemergence herbicidal rating ECHCG (ECHCG (Barnyardgrass); 0.0156 kg/ha): 0.0 | Preemergence herbicidal rating ECHCG (ECHCG (Barnyardgrass); 0.0313 kg/ha): 1.0 | Preemergence herbicidal rating ECHCG (ECHCG (Barnyardgrass); 0.0625 kg/ha): 0.0 | Preemergence herbicidal rating ECHCG (ECHCG (Barnyardgrass); 0.1250 kg/ha): 2.0 | Preemergence herbicidal rating ECHCG (ECHCG (Barnyardgrass); 0.2500 kg/ha): 3.0 | herbicidal effect rating, CYPSE (CYPSE (Flatsedge); 0.0625 kg/ha): 0.0 | herbicidal effect rating, CYPSE (CYPSE (Flatsedge); 0.1250 kg/ha): 0.0 | Herbicidal rating ZEAMX (ZEAMX (Corn, Field) [4]; rate 0.0156 kg/ha): 5.0 | Herbicidal rating ZEAMX (ZEAMX (Corn, Field) [4]; rate 0.0313 kg/ha): 6.5 | Herbicidal rating ZEAMX (ZEAMX (Corn, Field) [4]; rate 0.0625 kg/ha): 7.0 | Herbicidal rating SETVI (SETVI (Foxtail, Green) [5]; rate 0.0156 kg/ha): 1.0 | Herbicidal rating SETVI (SETVI (Foxtail, Green) [5]; rate 0.0313 kg/ha): 2.0 | Herbicidal rating SETVI (SETVI (Foxtail, Green) [5]; rate 0.0625 kg/ha): 7.0 | Preemergence herbicidal rating TRZAWR ([6]; 0.0156 kg/ha): 0.0 | Preemergence herbicidal rating TRZAWR ([6]; 0.0313 kg/ha): 0.0 | Preemergence herbicidal rating TRZAWR ([6]; 0.0625 kg/ha): 0.0 | Preemergence herbicidal rating TRZAWR ([6]; 0.1250 kg/ha): 1.0 | Preemergence herbicidal rating TRZAWR ([6]; 0.2500 kg/ha): 3.0
